Tests used:
[1] = system: A549-ACE2 infected with SARS-CoV-2; test: SARS-CoV-2 infection rate relative to DMSO; higher = more infection; conditions: 24 h
A549-ACE2 [2] = test: drug-induced phospholipidosis relative to tamoxifen; higher = more phospholipidosis
[3] = system: A549-ACE2 infected with SARS-CoV-2; test: cell count relative to DMSO; higher = less toxic; conditions: 24 h
HepG2 [4] = test: drug sensitivity score (DSS) for viability; higher = more toxic; extreme values may be limits of the assay; conditions: 72 h
Vero E6 [5] = test: as above; conditions: 72 h
Caco-2 [6] = test: as above; conditions: 72 h
U2OS [7] = test: as above; conditions: 72 h
Calu-3 [8] = test: as above; conditions: 72 h
A549-ACE2 [9] = test: phospholipidosis EC50; higher = less potent phospholipidosis inducer
HepG2 [10] = test: relative viability EC50 (midpoint between 100% and the lowest measured viability); higher = less toxic; conditions: 72 h
Vero E6 [11] = test: as above; conditions: 72 h
U2OS [12] = test: as above; conditions: 72 h
Calu-3 [13] = test: as above; conditions: 72 h
HepG2 [14] = test: cell viability relative to DMSO; higher = less toxic; conditions: 72 h
Vero E6 [15] = test: as above; conditions: 72 h
Caco-2 [16] = test: as above; conditions: 72 h
U2OS [17] = test: as above; conditions: 72 h
Calu-3 [18] = test: as above; conditions: 72 h
[19] = system: A549-ACE2 infected with SARS-CoV-2; test: morphology score (similarity to uninfected cells); higher = more like uninfected cells; conditions: 24 h
Caco-2 [20] = test: relative viability EC50 (midpoint between 100% and the lowest measured viability); higher = less toxic; conditions: 72 h

CCN(CC)CCOc1ccc(/C(=C(\Cl)c2ccccc2)c2ccccc2)cc1 [clomifene]
Conditions	SARS-CoV-2 infection rate [%]	cell count [%]	cell viability [%]	morphology score	phospholipidosis EC50 [µM]
A549-ACE2 [9], 24 h	–	–	–	–	0.972
A549-ACE2 [9], 48 h	–	–	–	–	3
A549-ACE2 [9], 72 h	–	–	–	–	4.75
Caco-2 [16], 1 nM	–	–	84.4	–	–
Caco-2 [16], 10 nM	–	–	100	–	–
Caco-2 [16], 100 nM	–	–	99.1	–	–
Caco-2 [16], 1000 nM	–	–	96.4	–	–
Caco-2 [16], 10000 nM	–	–	61.1	–	–
Calu-3 [18], 1 nM	–	–	100	–	–
Calu-3 [18], 10 nM	–	–	101	–	–
Calu-3 [18], 100 nM	–	–	102	–	–
Calu-3 [18], 1000 nM	–	–	90.4	–	–
Calu-3 [18], 10000 nM	–	–	10.8	–	–
HepG2 [14], 1 nM	–	–	90.5	–	–
HepG2 [14], 10 nM	–	–	89.9	–	–
HepG2 [14], 100 nM	–	–	105	–	–
HepG2 [14], 1000 nM	–	–	96	–	–
HepG2 [14], 10000 nM	–	–	26.5	–	–
U2OS [17], 1 nM	–	–	96.1	–	–
U2OS [17], 10 nM	–	–	99.4	–	–
U2OS [17], 100 nM	–	–	96.3	–	–
U2OS [17], 1000 nM	–	–	103	–	–
U2OS [17], 10000 nM	–	–	79.3	–	–
Vero E6 [15], 1 nM	–	–	94.7	–	–
Vero E6 [15], 10 nM	–	–	95.5	–	–
Vero E6 [15], 100 nM	–	–	91.9	–	–
Vero E6 [15], 1000 nM	–	–	101	–	–
Vero E6 [15], 10000 nM	–	–	77.4	–	–
[1], 0.1 µM	102	–	–	–	–
[1], 0.3 µM	84	–	–	–	–
[1], 1 µM	75	–	–	–	–
[1], 3 µM	31	–	–	–	–
[3], 0.1 µM	–	101	–	–	–
[3], 0.3 µM	–	106	–	–	–
[3], 1 µM	–	113	–	–	–
[3], 3 µM	–	117	–	–	–
[19], 0.1 µM	–	–	–	-0.09	–
[19], 0.3 µM	–	–	–	0.35	–
[19], 1 µM	–	–	–	0.5	–
[19], 3 µM	–	–	–	0.8	–

drug-induced phospholipidosis [%], A549-ACE2 [2]
Conditions	0.3 µM	0.833333 µM	3.33333 µM	6.66667 µM	10 µM	30 µM
24 h	9.43	34.4	86	104	115	47.6
48 h	7.92	29.7	72.8	101	120	–
72 h	9.07	23.5	62.7	94.3	144	–

Conditions	drug sensitivity score	relative viability EC50 [µM]
Caco-2 [6]	2.5	–
Calu-3 [8]	6.5	–
Calu-3 [13]	–	2.27
HepG2 [4]	4.6	–
HepG2 [10]	–	2.75
U2OS [7]	0.5	–
U2OS [12]	–	> 10
Vero E6 [5]	0.7	–
Vero E6 [11]	–	> 10

COc1cc(/C=C/C(=O)CC(=O)/C=C/c2ccc(O)c(OC)c2)ccc1O [curcumin]
Conditions	SARS-CoV-2 infection rate, [1] [%]	cell count, [3] [%]	cell viability, Caco-2 [16] [%]	cell viability, Calu-3 [18] [%]	cell viability, HepG2 [14] [%]	cell viability, U2OS [17] [%]	cell viability, Vero E6 [15] [%]	morphology score, [19]
1 nM	–	–	97.6	99.9	104	99.8	99.9	–
10 nM	–	–	102	103	102	107	96.3	–
100 nM	–	–	97.9	102	98.2	95.5	95.2	–
0.3 µM	102	89	–	–	–	–	–	-0.12
1000 nM	–	–	89.7	108	101	99.2	98.2	–
3 µM	93	107	–	–	–	–	–	0.05
10 µM	99	99	–	–	–	–	–	0.27
10000 nM	–	–	45.6	80.6	55.7	30	82.9	–
30 µM	14	64	–	–	–	–	–	0.48

drug-induced phospholipidosis [%], A549-ACE2 [2]
Conditions	0.3 µM	0.833333 µM	3.33333 µM	6.66667 µM	10 µM	30 µM
24 h	1.25	2.99	3.97	17.5	28.2	105
48 h	3.07	1.47	2.2	8.78	11	–
72 h	3.47	0.682	1.8	7.67	8.59	–

Conditions	drug sensitivity score	relative viability EC50 [µM]
Caco-2 [6]	4.6	–
Caco-2 [20]	–	1.79
Calu-3 [8]	0.3	–
Calu-3 [13]	–	> 10
HepG2 [4]	2.2	–
U2OS [7]	4	–
U2OS [12]	–	3.08
Vero E6 [5]	0.6	–
Vero E6 [11]	–	> 10

CNCC[C@H](Oc1cccc2ccccc12)c1cccs1 [duloxetine]
Conditions	SARS-CoV-2 infection rate [%]	cell count [%]	cell viability [%]	morphology score	phospholipidosis EC50 [µM]
A549-ACE2 [9], 24 h	–	–	–	–	9.15
A549-ACE2 [9], 48 h	–	–	–	–	9.16
A549-ACE2 [9], 72 h	–	–	–	–	15.6
Caco-2 [16], 1 nM	–	–	110	–	–
Caco-2 [16], 10 nM	–	–	100	–	–
Caco-2 [16], 100 nM	–	–	97.7	–	–
Caco-2 [16], 1000 nM	–	–	111	–	–
Caco-2 [16], 10000 nM	–	–	95.9	–	–
Calu-3 [18], 1 nM	–	–	103	–	–
Calu-3 [18], 10 nM	–	–	97.1	–	–
Calu-3 [18], 100 nM	–	–	92.4	–	–
Calu-3 [18], 1000 nM	–	–	90.9	–	–
Calu-3 [18], 10000 nM	–	–	78.8	–	–
HepG2 [14], 1 nM	–	–	96	–	–
HepG2 [14], 10 nM	–	–	102	–	–
HepG2 [14], 100 nM	–	–	99.4	–	–
HepG2 [14], 1000 nM	–	–	101	–	–
HepG2 [14], 10000 nM	–	–	88.2	–	–
Vero E6 [15], 1 nM	–	–	106	–	–
Vero E6 [15], 10 nM	–	–	100	–	–
Vero E6 [15], 100 nM	–	–	101	–	–
Vero E6 [15], 1000 nM	–	–	93.7	–	–
Vero E6 [15], 10000 nM	–	–	91	–	–
[1], 0.3 µM	104	–	–	–	–
[1], 3 µM	94	–	–	–	–
[1], 10 µM	37	–	–	–	–
[1], 30 µM	9	–	–	–	–
[3], 0.3 µM	–	101	–	–	–
[3], 3 µM	–	100	–	–	–
[3], 10 µM	–	119	–	–	–
[3], 30 µM	–	119	–	–	–
[19], 0.3 µM	–	–	–	0.09	–
[19], 3 µM	–	–	–	0.1	–
[19], 10 µM	–	–	–	0.8	–
[19], 30 µM	–	–	–	0.78	–

drug-induced phospholipidosis [%], A549-ACE2 [2]
Conditions	0.3 µM	0.833333 µM	3.33333 µM	6.66667 µM	10 µM	30 µM
24 h	3.9	1.59	17.6	53.6	65.6	111
48 h	2.99	-2.35	15.6	55.1	61.6	109
72 h	5.95	2.92	12.5	44.6	51.8	110

Conditions	drug sensitivity score	relative viability EC50 [µM]
Caco-2 [6]	0	–
Caco-2 [20]	–	> 10
Calu-3 [8]	1.3	–
Calu-3 [13]	–	> 10
HepG2 [4]	0	–
HepG2 [10]	–	> 10
Vero E6 [5]	0	–
Vero E6 [11]	–	> 10
